Peptide text beside a SMILES is read from it. * marks the point of attachment. Dansyl = CN(C)c1cccc2c(S(=O)(=O)*)cccc12
System: receptor labeled by the radioiodinated analogue of 1 (4, [125I]-YLFQPQRF-NH2); neuropeptide FF receptor
Test: Competitive radioligand binding against 4 ([125I]Y8F-amide)
Details: mixture-based positional scanning; difference from averaged radioligand displacement of whole library (0); about 80 a.u. = 10-fold change in Ki
Text: Additionally, three-dimensional (3-D) molecular models of the known smaller-size neuropeptide FF antagonists 3 and 3a were constructed and their low-energy conformations were obtained in the AMBER force-field [Weiner, et al., J. Comput. Chem. 1986, 7, […].] by molecular dynamics calculations involving simulated annealing. A semi-empirical quantum chemical method with the PM3 parameterization [Stewart, J. Comput. Chem. 1989, 10, 209-220.] was used for the final geometry optimization. […] At least one of the rings in domain B is aromatic. No similarity between 3 and 3a outside these domains were apparent; therefore, the simultaneous presence of A and B domains in the structure of neuropeptide FF (1) antagonists is critical to the invention. Apparently, structural subunits (domain C) outside domains A and B should function in a cooperative manner in directing the pharmacophores into proper geometric positions when improved binding to the cognate receptor is to be obtained, which is associated with the improvement of the desired pharmacological effect. An approach involving mixture-based synthetic combinatorial libraries and positional scanning [(a) Houghten, et al., J. Med Chem. 1999, 42, 3743-3778.] was adopted in the search for preferred structural motifs in domain C that assist in achieving this objective in this invention. To allow for the use of 3 as a reference in this process, the guadinino group (A) was incorporated as part of an L-2-amino-5-{[amino(imino)methyl]amino}pentanoyl (arginyl, R, Arg) residue and 5-dimethylamino-1-naphthalenesulphonyl (dansyl) was chosen to form B (However, it must be emphasized that both R and dansyl are replaceable with moieties that bestow A and B domain attributes described in the invention).
Upon screening for residues to replace the glutamine of 3, serine (S) was the only building block in this position that increased the displacement of 4 in the radioligand-binding assay. Therefore, motifs present in dansyl-Gly-Ser-Arg-NH2, dansyl-Gly-Gln-Arg-NH2, dansyl-Gln-Ser-Arg-NH2, and dansyl-Gln-Gln-Arg-NH2 were chosen based on their affinity to the cognate receptor for further consideration as primary templates when designing the domain C of the compounds described in the invention herein. […]

SMILES	Relative Binding Index (RBI) [a.u.]
CN(C)c1cccc2c(S(=O)(=O)N[C@@H](CCCNC(=N)N)C(=O)N[C@@H](CCC(=O)O)C(=O)N[C@@H](CCCNC(=N)N)C(N)=O)cccc12 [Dansyl-RER-amide] (Dansyl-Arg-Glu-Arg-NH2)	7
CN(C)c1cccc2c(S(=O)(=O)N[C@@H](CO)C(=O)N[C@@H](Cc3c[nH]c4ccccc34)C(=O)N[C@@H](CCCNC(=N)N)C(N)=O)cccc12 [Dansyl-SWR-amide] (Dansyl-Ser-Trp-Arg-NH2)	25
CN(C)c1cccc2c(S(=O)(=O)N[C@@H](Cc3c[nH]cn3)C(=O)NCC(=O)N[C@@H](CCCNC(=N)N)C(N)=O)cccc12 [Dansyl-HGR-amide] (Dansyl-His-Gly-Arg-NH2)	22
CC(C)[C@H](NC(=O)[C@H](CCC(N)=O)NS(=O)(=O)c1cccc2c(N(C)C)cccc12)C(=O)N[C@@H](CCCNC(=N)N)C(N)=O [Dansyl-QVR-amide] (Dansyl-Gln-Val-Arg-NH2)	17
CN(C)c1cccc2c(S(=O)(=O)N[C@@H](CCCNC(=N)N)C(=O)N[C@@H](CC(=O)O)C(=O)N[C@@H](CCCNC(=N)N)C(N)=O)cccc12 [Dansyl-RDR-amide] (Dansyl-Arg-Asp-Arg-NH2)	−11
C[C@@H](O)[C@H](NC(=O)[C@H](CCCNC(=N)N)NS(=O)(=O)c1cccc2c(N(C)C)cccc12)C(=O)N[C@@H](CCCNC(=N)N)C(N)=O [Dansyl-RTR-amide] (Dansyl-Arg-Thr-Arg-NH2)	12
CN(C)c1cccc2c(S(=O)(=O)N[C@@H](CCCCN)C(=O)N[C@@H](CC(N)=O)C(=O)N[C@@H](CCCNC(=N)N)C(N)=O)cccc12 [Dansyl-KNR-amide] (Dansyl-Lys-Asn-Arg-NH2)	26
CC(C)C[C@H](NS(=O)(=O)c1cccc2c(N(C)C)cccc12)C(=O)N[C@@H](CCC(N)=O)C(=O)N[C@@H](CCCNC(=N)N)C(N)=O [Dansyl-LQR-amide] (Dansyl-Leu-Gln-Arg-NH2)	−18
CN(C)c1cccc2c(S(=O)(=O)N3CCC[C@H]3C(=O)N[C@@H](Cc3c[nH]c4ccccc34)C(=O)N[C@@H](CCCNC(=N)N)C(N)=O)cccc12 [Dansyl-PWR-amide] (Dansyl-Pro-Trp-Arg-NH2)	−39
CC(C)C[C@H](NS(=O)(=O)c1cccc2c(N(C)C)cccc12)C(=O)N[C@@H](CCCNC(=N)N)C(=O)N[C@@H](CCCNC(=N)N)C(N)=O [Dansyl-LRR-amide] (Dansyl-Leu-Arg-Arg-NH2)	−33
C[C@H](NC(=O)[C@H](CCCCN)NS(=O)(=O)c1cccc2c(N(C)C)cccc12)C(=O)N[C@@H](CCCNC(=N)N)C(N)=O [Dansyl-KAR-amide] (Dansyl-Lys-Ala-Arg-NH2)	−24
C[C@@H](O)[C@H](NC(=O)[C@H](Cc1cnc[nH]1)NS(=O)(=O)c1cccc2c(N(C)C)cccc12)C(=O)N[C@@H](CCCNC(=N)N)C(N)=O [Dansyl-HTR-amide] (Dansyl-His-Thr-Arg-NH2)	22
CN(C)c1cccc2c(S(=O)(=O)N[C@@H](CCC(=O)O)C(=O)N[C@@H](Cc3ccccc3)C(=O)N[C@@H](CCCNC(=N)N)C(N)=O)cccc12 [Dansyl-EFR-amide] (Dansyl-Glu-Phe-Arg-NH2)	15
CC[C@H](C)[C@H](NC(=O)[C@@H](NS(=O)(=O)c1cccc2c(N(C)C)cccc12)[C@@H](C)O)C(=O)N[C@@H](CCCNC(=N)N)C(N)=O [Dansyl-TIR-amide] (Dansyl-Thr-Ile-Arg-NH2)	−2
CC[C@H](C)[C@H](NC(=O)[C@H](CC(=O)O)NS(=O)(=O)c1cccc2c(N(C)C)cccc12)C(=O)N[C@@H](CCCNC(=N)N)C(N)=O [Dansyl-DIR-amide] (Dansyl-Asp-Ile-Arg-NH2)	1
CN(C)c1cccc2c(S(=O)(=O)N[C@@H](CCCNC(=N)N)C(=O)N[C@@H](CCCNC(=N)N)C(=O)N[C@@H](CCCNC(=N)N)C(N)=O)cccc12 [Dansyl-RRR-amide] (Dansyl-Arg-Arg-Arg-NH2)	5

— US6960574B2, “Antagonists of RF-amide neuropeptides” (University of Florida, priority 2002, dated 2005)
